Drawing on US11168086B2, “Methods of synthesizing pyrazine compounds” (Hoffmann-La Roche Inc., priority 2015, dated 2021), this text covers EC50 for 25 compounds.

SMILES strings stand for the structures.

This test has as its system HBV. Description: HBV inhibition assay: anti-HBV activity in vitro in HepG2.2.15 cells (extracellular HBV DNA by qPCR). The conditions noted are these: Hepatitis B virus, 120 h, five days after compound treatment, extracellular HBV DNA in culture supernatant by qPCR, concentration at which HBV replication is inhibited by 50%. The test is classed as cell-based. The essentials: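 HepG2.2.15 cells (stably carrying HBV genome) treated with half-log serially diluted compounds at 0.5% DMSO final for five days. Extracellular HBV DNA in supernatant quantified by qPCR after Proteinase K digestion; EC50 is concentration giving 50% inhibition of replication.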
(In general: Real-time PCR tracks product formation cycle by cycle.)
Usually EC50 stands for the midpoint of the concentration-response curve. A lower EC50 goes with greater potency. As to `C[C@@H]1CN(C(=O)C2CC(=O)N(c3cnn4c3CN(C(=O)Nc3cc(F)c(F)c(F)c3)[C@@H](C)C4)C2)CCO1` (stereo partly drawn) [Example 394, (6S)-6-methyl-3-[4-[(2R)-2-methylmorpholine-4-carbonyl]-2-oxo-pyrrolidin-1-yl]-N-(3,4,5-trifluorophenyl)-6,7-dihydro-4H-pyrazolo[1,5-a]pyrazine-5-carboxamide], the EC50 is 65 nM.
Next, `C[C@H]1CN(C(=O)C2CC(=O)N(c3cnn4c3CN(C(=O)Nc3cc(F)c(F)c(F)c3)[C@@H](C)C4)C2)CCO1` (stereo partly drawn) [Example 395, (6S)-6-methyl-3-[4-[(2S)-2-methylmorpholine-4-carbonyl]-2-oxo-pyrrolidin-1-yl]-N-(3,4,5-trifluorophenyl)-6,7-dihydro-4H-pyrazolo[1,5-a]pyrazine-5-carboxamide]: 88 nM; `C[C@@H]1CN(C(=O)C2CC(=O)N(c3cnn4c3CN(C(=O)Nc3cc(F)c(F)c(F)c3)[C@@H](C)C4)C2)C[C@@H](C)O1` (stereo partly drawn) [Example 396, (6S)-3-[4-[trans-2,6-dimethylmorpholine-4-carbonyl]-2-oxo-pyrrolidin-1-yl]-6-methyl-N-(3,4,5-trifluorophenyl)-6,7-dihydro-4H-pyrazolo[1,5-a]pyrazine-5-carboxamide]: 58 nM; `C[C@@H]1CN(C(=O)C2CC(=O)N(c3cnn4c3CN(C(=O)Nc3cc(F)c(F)c(F)c3)[C@@H](C)C4)C2)C[C@H](C)O1` (stereo partly drawn) [Example 397, (6S)-3-[4-[cis-2,6-dimethylmorpholine-4-carbonyl]-2-oxo-pyrrolidin-1-yl]-6-methyl-N-(3,4,5-trifluorophenyl)-6,7-dihydro-4H-pyrazolo[1,5-a]pyrazine-5-carboxamide]: 60 nM.
Next, `C[C@H]1Cn2ncc(N3CC(C(=O)N4CCC(F)(F)C4)CC3=O)c2CN1C(=O)Nc1cc(F)c(F)c(F)c1` (stereo partly drawn) [Example 398, (6S)-3-[4-(3,3-difluoropyrrolidine-1-carbonyl)-2-oxo-pyrrolidin-1-yl]-6-methyl-N-(3,4,5-trifluorophenyl)-6,7-dihydro-4H-pyrazolo[1,5-a]pyrazine-5-carboxamide]: 80 nM; `C[C@H]1Cn2ncc(N3CC(C(=O)N(C)c4ncco4)CC3=O)c2CN1C(=O)Nc1cc(F)c(F)c(F)c1` (stereo partly drawn) [Example 399, (6S)-6-methyl-3-[4-[methyl(oxazol-2-yl)carbamoyl]-2-oxo-pyrrolidin-1-yl]-N-(3,4,5-trifluorophenyl)-6,7-dihydro-4H-pyrazolo[1,5-a]pyrazine-5-carboxamide]: 19 nM.
To `C[C@H]1Cn2ncc(N3CC(C)(C(=O)N4CCC(F)(F)C4)CC3=O)c2CN1C(=O)Nc1cc(F)c(F)c(F)c1` (stereo partly drawn) [Example 400, (6S)-3-[4-(3,3-difluoropyrrolidine-1-carbonyl)-4-methyl-2-oxo-pyrrolidin-1-yl]-6-methyl-N-(3,4,5-trifluorophenyl)-6,7-dihydro-4H-pyrazolo[1,5-a]pyrazine-5-carboxamide] belongs 94 nM.
As to `C[C@H]1Cn2ncc(N3CC(C)(C(=O)N4CCC(F)(F)CC4)CC3=O)c2CN1C(=O)Nc1cc(F)c(F)c(F)c1` (stereo partly drawn) [Example 401, (6S)-3-[4-(4,4-difluoropiperidine-1-carbonyl)-4-methyl-2-oxo-pyrrolidin-1-yl]-6-methyl-N-(3,4,5-trifluorophenyl)-6,7-dihydro-4H-pyrazolo[1,5-a]pyrazine-5-carboxamide], a half-maximal effect (EC50) was put at 88 nM.
To `Cc1nnc(C2(C)CC(=O)N(c3cnn4c3CN(C(=O)Nc3cc(F)c(F)c(F)c3)[C@@H](C)C4)C2)o1` (stereo partly drawn) [Example 403, (6S)-6-methyl-3-[4-methyl-4-(5-methyl-1,3,4-oxadiazol-2-yl)-2-oxo-pyrrolidin-1-yl]-N-(3,4,5-trifluorophenyl)-6,7-dihydro-4H-pyrazolo[1,5-a]pyrazine-5-carboxamide] belongs 31 nM; to `C[C@H]1Cn2ncc(N3CC(C)(c4nnco4)CC3=O)c2CN1C(=O)Nc1cc(F)c(F)c(F)c1` (stereo partly drawn) [Example 404, (6S)-6-methyl-3-[4-methyl-4-(1,3,4-oxadiazol-2-yl)-2-oxo-pyrrolidin-1-yl]-N-(3,4,5-trifluorophenyl)-6,7-dihydro-4H-pyrazolo[1,5-a]pyrazine-5-carboxamide], 42 nM; to `Cc1noc(C2(C)CC(=O)N(c3cnn4c3CN(C(=O)Nc3cc(F)c(F)c(F)c3)[C@@H](C)C4)C2)n1` (stereo partly drawn) [Example 405, (6S)-6-methyl-3-[4-methyl-4-(3-methyl-1,2,4-oxadiazol-5-yl)-2-oxo-pyrrolidin-1-yl]-N-(3,4,5-trifluorophenyl)-6,7-dihydro-4H-pyrazolo[1,5-a]pyrazine-5-carboxamide], 10 nM.
With `Cc1nc(C2(C)CC(=O)N(c3cnn4c3CN(C(=O)Nc3cc(F)c(F)c(F)c3)[C@@H](C)C4)C2)no1` (stereo partly drawn) [Example 406, (6S)-6-methyl-3-[4-methyl-4-(5-methyl-1,2,4-oxadiazol-3-yl)-2-oxo-pyrrolidin-1-yl]-N-(3,4,5-trifluorophenyl)-6,7-dihydro-4H-pyrazolo[1,5-a]pyrazine-5-carboxamide], the response was half-maximal at 6 nM (EC50).
Regarding `C[C@H]1Cn2ncc(N3C[C@@H](c4cnco4)OCC3=O)c2CN1C(=O)Nc1cc(F)c(F)c(F)c1` [Example 407, (6S)-6-methyl-3-[(2S)-2-oxazol-5-yl-5-oxo-morpholin-4-yl]-N-(3,4,5-trifluorophenyl)-6,7-dihydro-4H-pyrazolo[1,5-a]pyrazine-5-carboxamide], the midpoint of the response, the EC50, lay at 24 nM.
As to `Cc1noc(C2CN(c3cnn4c3CN(C(=O)Nc3cc(F)c(F)c(F)c3)[C@@H](C)C4)C(=O)O2)n1` (stereo partly drawn) [Example 408, (6S)-6-methyl-3-[5-(3-methyl-1,2,4-oxadiazol-5-yl)-2-oxo-oxazolidin-3-yl]-N-(3,4,5-trifluorophenyl)-6,7-dihydro-4H-pyrazolo[1,5-a]pyrazine-5-carboxamide], the EC50 came to 22 nM.
For `C[C@H]1Cn2ncc(N3CC(c4ccc(Cl)nc4)OC3=O)c2CN1C(=O)Nc1cc(F)c(F)c(F)c1` (stereo partly drawn) [Example 409, (6S)-3-[5-(6-chloro-3-pyridyl)-2-oxo-oxazolidin-3-yl]-6-methyl-N-(3,4,5-trifluorophenyl)-6,7-dihydro-4H-pyrazolo[1,5-a]pyrazine-5-carboxamide], the response was half-maximal at 16 nM (EC50).
Regarding `C[C@H]1Cn2ncc(N3CC(c4ccc(F)cn4)OC3=O)c2CN1C(=O)Nc1cc(F)c(F)c(F)c1` (stereo partly drawn) [Example 410, (6S)-3-[5-(5-fluoro-2-pyridyl)-2-oxo-oxazolidin-3-yl]-6-methyl-N-(3,4,5-trifluorophenyl)-6,7-dihydro-4H-pyrazolo[1,5-a]pyrazine-5-carboxamide], the EC50 amounted to 37 nM. Compared with the last compound, the EC50 is about 2.3-fold higher.
Compound `C[C@H]1Cn2ncc(N3CC(c4cccc(F)n4)OC3=O)c2CN1C(=O)Nc1cc(F)c(F)c(F)c1` (stereo partly drawn) [Example 411, (6S)-3-[5-(6-fluoro-2-pyridyl)-2-oxo-oxazolidin-3-yl]-6-methyl-N-(3,4,5-trifluorophenyl)-6,7-dihydro-4H-pyrazolo[1,5-a]pyrazine-5-carboxamide] showed an EC50 of 18 nM. Against the preceding compound, the EC50 is about 2.1-fold lower.
Next, `C[C@H]1Cn2ncc(N3CC(c4cnn(C)c4)CC3=O)c2CN1C(=O)Nc1cc(F)c(F)c(F)c1` (stereo partly drawn) [Example 412, (6S)-6-methyl-3-[4-(1-methylpyrazol-4-yl)-2-oxo-pyrrolidin-1-yl]-N-(3,4,5-trifluorophenyl)-6,7-dihydro-4H-pyrazolo[1,5-a]pyrazine-5-carboxamide]: 21 nM; `C[C@H]1Cn2ncc(N3CC(c4cncnc4)CC3=O)c2CN1C(=O)Nc1cc(F)c(F)c(F)c1` (stereo partly drawn) [Example 413, (6S)-6-methyl-3-(2-oxo-4-pyrimidin-5-yl-pyrrolidin-1-yl)-N-(3,4,5-trifluorophenyl)-6,7-dihydro-4H-pyrazolo[1,5-a]pyrazine-5-carboxamide]: 76 nM; `C[C@H]1Cn2ncc(N3CC(Nc4ncc(F)cn4)CC3=O)c2CN1C(=O)Nc1cc(F)c(F)c(F)c1` (stereo partly drawn) [Example 414, (6S)-3-[4-[(5-fluoropyrimidin-2-yl)amino]-2-oxo-pyrrolidin-1-yl]-6-methyl-N-(3,4,5-trifluorophenyl)-6,7-dihydro-4H-pyrazolo[1,5-a]pyrazine-5-carboxamide]: 17 nM.
To `C[C@H]1Cn2ncc(N3C[C@H](Oc4ncccn4)CC3=O)c2CN1C(=O)Nc1cc(F)c(F)c(F)c1` [Example 415, (6S)-6-methyl-3-[(4R)-2-oxo-4-pyrimidin-2-yloxy-pyrrolidin-1-yl]-N-(3,4,5-trifluorophenyl)-6,7-dihydro-4H-pyrazolo[1,5-a]pyrazine-5-carboxamide] belongs 25 nM; to `C[C@H]1Cn2ncc(N3Cc4ccnn4CC3=O)c2CN1C(=O)Nc1cc(F)c(F)c(F)c1` [Example 419, (6S)-6-methyl-3-(6-oxo-4,7-dihydropyrazolo[1,5-a]pyrazin-5-yl)-N-(3,4,5-trifluorophenyl)-6,7-dihydro-4H-pyrazolo[1,5-a]pyrazine-5-carboxamide], 71 nM.
`C[C@H]1Cn2ncc(N3CC4(CCC4)CC3=O)c2CN1C(=O)Nc1cc(F)c(F)c(F)c1` [Example 421, (6S)-6-methyl-3-(7-oxo-6-azaspiro[3.4]octan-6-yl)-N-(3,4,5-trifluorophenyl)-6,7-dihydro-4H-pyrazolo[1,5-a]pyrazine-5-carboxamide] returned an EC50 of 14 nM.
For `C[C@H]1Cn2ncc(N3CC4(CCC4)C(O)C3=O)c2CN1C(=O)Nc1cc(F)c(F)c(F)c1` (stereo partly drawn) [Example 422, (6S)-3-(8-hydroxy-7-oxo-6-azaspiro[3.4]octan-6-yl)-6-methyl-N-(3,4,5-trifluorophenyl)-6,7-dihydro-4H-pyrazolo[1,5-a]pyrazine-5-carboxamide], the EC50 amounted to 65 nM.
Next, `C[C@H]1Cn2ncc(N3CC4(CC4)C(O)C3=O)c2CN1C(=O)Nc1cc(F)c(F)c(F)c1` (stereo partly drawn) [Example 424, (6S)-3-(7-hydroxy-6-oxo-5-azaspiro[2.4]heptan-5-yl)-6-methyl-N-(3,4,5-trifluorophenyl)-6,7-dihydro-4H-pyrazolo[1,5-a]pyrazine-5-carboxamide]: 44 nM.
